Data taken from patent publication US9034859B2, “Sulfated oxysterol and oxysterol sulfation by hydroxysterol sulfotransferase promote lipid homeostasis and liver proliferation” (Virginia Commonwealth University, priority 2011, dated 2015).

Columns and labels:
[1] = Pharmacokinetics and tissue biodistribution of radioactivity after i.v. injection; type: in vivo, C57BL/6 mice
Protocol: In a separate set of experiments, mice received an i.v. injection of [^3H]-25HC3S (1×10^6 cpm/mouse) and 25HC3S (5 mg/kg). At 4, 24, 48, and 96 h after the injection, mice were sacrificed, tissues (brain, heart, lung, liver, kidney, spleen, stomach, small intestine, skeletal muscle, and colon) were rapidly dissected and weighed, and the radioactivity was measured using a liquid scintillation counter with automatic decay correction (Beckman Counter, Atlanta, Ga.). Tissue values were calculated as a percentage of injected counts per gram of tissue (% IC/g). For pharmacokinetics, blood samples (30 μl) were collected at selected times after injection from 0 to 96 h via tail clip. Counts of radioactivity were expressed as IC/ml of blood.

[2] = Quantification of hepatic lipids and liver morphology, long-term treatment; type: in vivo, C57BL/6J female mice; conditions: HFD mice
Protocol: Animal studies were approved by Institutional Animal Care and Use Committee of McGuire Veterans Affairs Medical Center and were conducted in accordance with the Declaration of Helsinki, the Guide for the Care and Use of Laboratory Animals, and all applicable regulations. To examine the effect of 25HC3S on diet-induced lipid accumulation in sera and liver, 8-week-old female C57BL/6J mice (Charles River, Wilmington, Mass.) were randomly assigned to three groups: the first control group was fed a chow diet; the high fat diet (HFD) group was fed a HFD (Harlan Teklad, Madison, Wis.) containing 42% kcal from fat, 43% kcal from carbohydrate, 15% kcal from protein and 0.2% cholesterol; and the high cholesterol diet (HCD) group was fed a 2% cholesterol diet with 18% kcal from fat, 58% kcal from carbohydrate and 24% kcal from protein for 10 weeks, respectively. All mice were housed under identical conditions in an aseptic facility and given free access to water and food. At the end of each period, the mice were intraperitoneally injected with vehicle solution (ethanol/PBS; Vehicle), 25HC (25 mg/kg), or 25HC3S (25 mg/kg) for 2 times and fasted over night for acute treatment (n=15-17 for each group) or once every three days for 6 weeks (n=16 for each group) and fasted 5 hrs for long-term treatment; and blood samples were collected. Serum triglyceride, total cholesterol, high density lipoprotein-cholesterol, glucose, alkaline phosphatase (ALK), alanine aminotransferase (ALT), and aspartate aminotransferase (AST) were measured using standard enzymatic techniques in the clinical laboratory at McGuire Veterans Affairs Medical Center. Lipoprotein profiles in sera were analyzed by HPLC as following described.
For each mouse, three specimens from different regions of the liver were collected and fixed in 4% paraformaldehyde in 0.1 M phosphate buffer at room temperature overnight. The regions of the specimens were standardized for all mice. The paraffin-embedded tissue sections (4 μm) were stained with hematoxylin and eosin.
Liver tissues were homogenized, and lipids were extracted with a mixture of chloroform and methanol (2:1), and filtered. The extracts, 0.2 ml, were evaporated to dryness and dissolved in 100 μl of isopropanol containing 10% of triton X-100 for cholesterol assay (Wako Chemicals USA, Richmond, Va.), the NEFA solution (0.5 g of EDTA-Na2, 2 g of Triton X-100, 0.76 ml of 1N NaOH, and 0.5 g of sodium azide/1, pH 6.5) for free fatty acid assay (Wako Chemicals USA, Richmond, Va.), or isopropanol only for triglyceride assay (Fisher Scientific, Pittsburgh, Pa.). All of the assays were performed according to the manufacturer's instructions, respectively. Each lipid concentration was normalized to liver weight.

[3] = i.v. [3H]-25HC3S and 25HC3S 5 mg/kg

CC(CCCC(C)(C)O)C1CCC2C3CC=C4CC(OS(=O)(=O)O)CCC4(C)C3CCC12C (centres unmarked) [25HC3S, 25-hydroxycholesterol-3-sulfate]
maximum level of 3H-radioactivity in blood ([1]; i.v. [3H]-25HC3S (1×10^6 cpm/mouse) and 25HC3S 5 mg/kg): 7 % IC/g
time at which blood 3H-radioactivity decreased to the half level [1, 3]: 48 h
time of maximum 3H-radioactivity in blood [1, 3]: 1 h
clearance ([1]; i.v., blood radioactivity): slow clearance
time of highest uptake of 3H-radioactivity in most organs ([1]; i.v., measured at 4, 24, 48 and 96 h): 4 h
hepatic cholesterol ester concentration [2]: not affected
lipid inclusions in liver (H&E morphology) [2]: significantly decreased
reduction of hepatic free cholesterol ([2]; normalized by liver weight): 28%
reduction of hepatic free fatty acid ([2]; normalized by liver weight): 23%
reduction of hepatic total cholesterol ([2]; normalized by liver weight): 15%
reduction of hepatic triglyceride ([2]; normalized by liver weight): 30%
